One assay relates to Botrytis cinerea. As to the kind of experiment: Activity against gray mold on bell pepper leaves caused by Botrytis cinerea, protective application (Use Example 6). The assay is classed as in vivo. The note with it: 63 ppm active compound, 5 days, untreated plants 90% affected. The protocol: The mixture was then made up to 100 ml with water.
The next day, the treated plants were inoculated with an aqueous spore suspension of Botrytis cinerea in a 2% strength aqueous biomold solution having a density of 1.7×10^6 spores/ml. The plants were then placed in a dark acclimatized chamber at temperatures between 22 and 24° C. and high atmospheric humidity. After 5 days, the extent of the fungal infection could be determined visually by the infection of the leaf area.

Assay [1] deals with Plasmopara viticola. The experiment in a line: Activity against Peronospora of grapevines caused by Plasmopara viticola (Use Example 1, inoculation the next day). Type of assay: in vivo, Plasmopara viticola on potted grapevines. As to conditions: 250 ppm active compound, spray to runoff, inoculated next day; untreated plants 80% infected. As to the method:
For the use examples 1 to 3, the active compounds were prepared as a stock solution comprising 0.25% by weight of active compound in acetone or dimethyl sulfoxide (DMSO). 1% by weight of the emulsifier Uniperol® EL (wetting agent having emulsifying and dispersant action based on ethoxylated alkylphenols) was added to this solution, and the mixture was diluted with water to the desired concentration.
Leaves of potted grapevines were sprayed to runoff point with an aqueous suspension having the concentration of active compounds stated below. The next day, the undersides of the leaves were inoculated with an aqueous sporangia suspension of Plasmopara viticola. The grapevines were then initially placed in a water vapor-saturated chamber at 24° C. for 48 hours and then in a greenhouse at temperatures between 20 and 30° C. for 5 days. After this time, the plants were again placed in a humid chamber for 16 hours to promote sporangiophore eruption. The extent of the development of the infection on the undersides of the leaves was then determined visually.

Assay [2] deals with Erysiphe [syn. Blumeria] graminis forma specialis. tritici. As to the kind of experiment: Activity against mildew of wheat caused by Erysiphe [syn. Blumeria] graminis forma specialis. tritici (Use Example 7). The assay is classed as in vivo. The note with it: 250 ppm active compound, protective 24 h, 7 days; untreated plants 70% infected. The protocol: (§1) For the use examples 4 to 7, the active compounds were prepared as a stock solution comprising 25 mg of active compound which was made up with a mixture of acetone and/or DMSO and the emulsifier Uniperol® EL in a volume ratio of solvent/emulsifier of 99:1 to 10 ml. The mixture was then made up to 100 ml with water. This stock solution was diluted to the active compound concentration stated below using the solvent/emulsifier/water mixture described.
Leaves of potted wheat seedlings of the cultivar “Kanzler” were sprayed to runoff point with an aqueous suspension having the concentration of active compound stated below. 24 h after the spray coating had dried on, the leaves were dusted with spores of mildew of wheat (Erysiphe [syn. Blumeria] graminis forma specialis. tritici). The plants were then placed in a greenhouse at temperatures between 20 and 24° C. and 60 to 90% relative atmospheric humidity. After 7 days, the extent of the fungal infection was determined visually by the infection of the leaf area.

In assay [3] the test system is Plasmopara viticola. As to the kind of experiment: Activity against Peronospora of grapevines caused by Plasmopara viticola, 7 day protective application (Use Example 5). Type of assay: in vivo, Plasmopara viticola on potted grapevines. The note with it: 250 ppm active compound, untreated plants 50% infected. As to the method: as §1
Leaves of potted grapevines were sprayed to runoff point with an aqueous suspension having the concentration of active compound stated below. To be able to assess the persistency of the substances, the plants were, after the spray coating had dried on, placed in a greenhouse for 7 days. The undersides of the leaves were then inoculated with an aqueous sporangia suspension of Plasmopara viticola. The grapevines were then placed initially for 48 hours in a water vapor-saturated chamber at 24° C. and then for 5 days in the greenhouse at temperatures between 20 and 30° C. After this time, the plants were again placed in a humid chamber for 16 hours, to accelerate sporangiophore eruption. The extent of the development of the infection on the undersides of the leaves was then determined visually.

For `Cn1cc(C(=O)Nc2ccnn2-c2ccc(-c3ccccc3)cc2)c(C(F)(F)F)n1` [example 43], the “infection (leaf area)” value with Botrytis cinerea was “at most 10%”.
With `Cc1ccsc1C(=O)Nc1cc(C(F)(F)F)nn1-c1ccc(Br)cc1` [example 18], in the assay on Plasmopara viticola [1], the infection entry was “at most 20%”.
Turning to `Cc1ccc(-n2nccc2NC(=O)c2cccnc2Cl)cc1` [example 31], in assay [2], the “infection (leaf area)” value is on record as “at most 15%”.
Take `Cc1nn(C)cc1C(=O)Nc1cc(C(F)(F)F)nn1-c1ccccc1` [example 10]: the infection entry with Plasmopara viticola [3] was “at most 20%”.

(Values after US20070275981A1, “(Hetero)Cyclycarboxamides for Controlling Pathogenic Fungi” (priority 2004, published 2007).)
